Source: patent EP0269947B2, “Antiviral phosphonomethoxyalkylene purine and pyrimidine derivatives” (priority 1986, dated 1988)

How the values were obtained:
Parameters in all cases: unit not given here
[1] = tested on: Murine leukemia virus (MuLV); assay: UV-XC plaque assay against murine retroviruses; assay type: cell-based; conditions: MuLV in SC-1 cells
Protocol: The compounds wore evaluated for antiviral activity against Murine leukemia virus (MuLV) strains using the UV-XC plaque assay (Rowe, et al., "Virology," 42:1136, 1970).
The MuLV strains were grown in feral mouse cells (SC-1) and used for antiviral tests using the UV-XC plaque assay. Briefly, SC-1 coils are grown as monolayers in 4-well tissue culture plates and inoculated with approximately 50-100 plaque forming units of MuLV in 0.5 ml of 5% EMEM containing 20 ug/ml DEAE/Dextran. After 1 hr. adsorbtion, the inoculum is removed and 5 ml of 5% EMEM containing three-fold dilutions of the appropriate drug are added. Five days later, the cultures are UV-irradiated with an ultraviolet lamp and rat XC sarcoma cells are added to the cultures. Three-four days after UV-irradiation, the cell cultures are stained with Giemsa stain and the plaques are enumerated. Antiviral activity is expressed in terms of the reduction in the mean number of UV-XC plaques counted in the drug treated, virus-infected cultures compared with mean number of plaques counted in untreated, virus-infected control cultures. The ID50 for each drug was determined.

[2] = tested on: Human cytomegalovirus (HCMV) strain (AD169); assay: Plaque reduction assay against human cytomegalovirus; assay type: cell-based; conditions: HCMV strain AD169 in MRC-5 cells
Protocol: (§1) The titer of HSV strains is determined by a plaque titration method (Roizman and Roane,"Virology," 15:75-79, 1961). Tissue culture 24-well petri dishes are seeded with cells and used for assays when approximately 75% monolayer. Volumes (0.1ml) of logarithmic dilutions of the virus strain are inoculated onto each of triplicate wells, and absorbed for one hour with intermittent shaking. The inoculum thereafter is removed, and 1 ml of 5-10% EMEM containing 0.3% human immune serum globulin is added. After a 48 hr. incubation period at 37°C in a 5% CO2 atmosphere, the overlay medium is removed and the cell sheets stained with Giemsa stain. The number of plaques is counted, the triplicate is averaged, and the number of plaque-forming units per ml is calculated.
(§2) The compounds are tested for activity against the herpes simplex strains using a stock solution of each compound freshly prepared. Appropriate dilution of each compound are made in 10% EMEM before usage. The antiviral efficacy of each compound is determined using the plaque reduction assay described above. Briefly, tissue culture 24-well plates, with approximately 75% cell monolayer are inoculated with approximately 50 plaque forming units of HSV per 0.1 ml, and the virus adsorbed for 1 hr, with intermittent shaking. After removal of the inoculum, 1 ml of 10% EMEM containing two-fold dilutions of the appropriate drug are added in triplicates. Triplicate wells/plate receives no drug and are used as a virus control. After a 48-hour incubation period, at 37°C in a 5% CO2 atmosphere, the overlay medium is removed, the cells stained as described above, and plaques are counted. The counts of triplicate wells are averaged, and the number of plaques in the presence of each drug dilution are calculated.
(§3) The antiviral potency of the drug is determined by ID50, the drug concentration necessary to reduce the number of plaques by 50% of those in the virus control cultures.
Human cytomegalovirus (HCMV) strain (AD169) was grown and titered at 37° in human embryonic lung (diploid) cells, MRC-5, and used for the antiviral assay.
The compounds are tested for activity against the HCMV using the procedure for the plaque reduction assay described above.

[3] = tested on: HSV-2; assay: Colorimetric dye-uptake assay (neutral red), herpes simplex virus type 2; assay type: cell-based, Herpes simplex virus (HSV); conditions: vero cells, 48 hr incubation, neutral red stain; ID50 by linear regression
Protocol: (§4) Herpes simplex virus (HSV) strains wars grown and titered at 37°C in vero cells (African Green Monkey Kidney cells) and used for virus work before the tenth passage.
(§5) Cells were grown and maintained in Earle's Minimum Essential Medium (EMEM), Gibco Laboratories, supplemented with 0.75% sodium bicarbonate, 2mM 1-glutamine, Pen-strep. and 5-10% fetal calf serum.
(§6) For the primary screening, a colorimetric dye-uptake assay (McLaren, C., et al., "Antiviral Research," 3:323, 1983) is used employing rapidly growing vero cells. Briefly, cells, compound and virus dilutions are added onto 96-well tissue culture plates simultaneously using the cells, viruses and medium described above. After 48 hr. incubation at 37°C in 5% CO2 atmosphere, the overlay medium is removed and the cell sheets are stained with 0.04% neutral red solution. After 30 min. incubation at 37°C, the cell sheets are washed and the stain is eluted with 0.05 M sodium monophosphate in 47% ethanol and the O.D. is determined at 540 nm wave length.
(§7) The 50% inhibitory dose (ID50) for each drug is determined by linear regression analysis.

[4] = tested on: HSV-2; assay: Plaque reduction assay, herpes simplex virus type 2; assay type: cell-based, Herpes simplex virus (HSV); conditions: vero cells, 48-hour incubation; concentration reducing number of plaques by 50%
Protocol: as §4, §5, §1, §2, §3

[5] = tested on: HSV-1; assay: Colorimetric dye-uptake assay (neutral red), herpes simplex virus type 1; assay type: cell-based, Herpes simplex virus (HSV); conditions: vero cells, 48 hr incubation, neutral red stain; ID50 by linear regression
Protocol: as §4, §5, §6, §7

[6] = tested on: HSV-1; assay: Plaque reduction assay, herpes simplex virus type 1; assay type: cell-based, Herpes simplex virus (HSV); conditions: vero cells, 48-hour incubation; concentration reducing number of plaques by 50%
Protocol: as §4, §5, §1, §2, §3

Row | Compound | Muly ID50 [1] | CMV ID50 [2] | Dye-Uptake HSV-2 ID50 [3] | Plaque Reduction HSV-2 ID50 [4] | Dye-Uptake HSV-1 ID50 [5] | Plaque Reduction HSV-1 ID50 [6]
1 | Cc1cn([C@H]2C[C@H](N=[N+]=[N-])[C@@H](CO)O2)c(=O)[nH]c1=O [3'-Azido-3'-deoxythymidine, reference compound] | 0.0001 | – | – | – | – | –
2 | Nc1nc2c(ncn2COC(CO)CO)c(=O)[nH]1 [9-(1,3-Dihydroxypropoxymethyl)guanine, reference compound] | – | 1.2 | – | – | – | –
3 | Nc1ncnc2c1ncn2C[C@@H](CO)OCP(=O)(O)O [(S)-9-(3-Hydroxy-2-phosphonomethoxy)propyl adenine, reference compound] | 2.0 | 0.13 | > 25 | 35.8 | 15.1 | 13.8
4 | Nc1nc2c(ncn2COCCO)c(=O)[nH]1 [Acyclovir, reference compound] | – | – | 1.0 | 1.5 | 0.5 | 0.3
5 | CCOP(=O)(O)COCCn1cnc2c(=O)[nH]c(N)nc21 [Ex. 7, 9-(2-(Monoethylphosphonomethoxy)ethyl)guanine] | 0.56 | 0.23 | 8 | 5.1 | 12 | 4.8
6 | CC(COCP(=O)(O)O)n1cnc2c(=O)[nH]c(N)nc21 (centres unmarked) [Ex. 13] | – | – | 10.4 | 3.3 | 8.7 | 3.0
7 | Nc1nc2c(ncn2CCCOCP(=O)(O)O)c(=O)[nH]1 [Ex. 18] | 0.04 | 6.0 | – | – | – | –
8 | Nc1ncc2ncn(CCOCP(=O)(O)O)c2n1 [Ex. 25] | – | <0.032 | – | – | – | –
9 | COP(=O)(O)COCCn1cnc2c(=O)[nH]c(N)nc21 [Ex. 32] | 0.05 | – | 3.8 | 1.2 | 1.5 | 1.6
10 | CCCOP(=O)(O)COCCn1cnc2c(=O)[nH]c(N)nc21 [Ex. 33] | – | – | – | 9.9 | – | 9.7
11 | CC(C)OP(=O)(O)COCCn1cnc2c(=O)[nH]c(N)nc21 [Ex. 34] | 1.72 | – | – | 34.8 | – | 74.9
